#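 1) Cells in 96-well plates. 2) Compound, 48 h, 5 concentrations. 3) Linear interpolation between surrounding doses. 4) Unreached endpoint = highest concentration. Abbreviation: GI50, concentration required for 50% inhibition of growth.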 Calls of active or inactive are those of the source. Rule as the data show it: active = GI50 up to about 1.1 µM and inactive = higher.
# Columns and labels:
# Assay in all cases: inhibition of tumour cell growth, NCI panel, 48 h
# OVCAR-5 = tested on: OVCAR-5
# SW-620 = tested on: SW-620
# T47D = tested on: T47D
# SK-OV-3 = tested on: SK-OV-3
# LXFL 529 = tested on: LXFL 529
# K562 = tested on: K562
# SK-MEL-2 = tested on: SK-MEL-2
# HOP-92 = tested on: HOP-92
# KM-20L2 = tested on: KM-20L2
# MCF7 = tested on: MCF7
# OVCAR-8 = tested on: OVCAR-8
# CCRF-CEM = tested on: CCRF-CEM
# NCI-H23 = tested on: NCI-H23
# NCI-H460 = tested on: NCI-H460
# M14 = tested on: M14
# SNB-78 = tested on: SNB-78
# MDA-MB-231 = tested on: MDA-MB-231
# M19-MEL = tested on: M19-MEL
# EKVX = tested on: EKVX
# MDA-N = tested on: MDA-N
Structure (SMILES),GI50 (OVCAR-5),GI50 (SW-620),GI50 (T47D),GI50 (SK-OV-3),GI50 (LXFL 529),GI50 (K562),GI50 (SK-MEL-2),GI50 (HOP-92),GI50 (KM-20L2),GI50 (MCF7),GI50 (OVCAR-8),GI50 (CCRF-CEM),GI50 (NCI-H23),GI50 (NCI-H460),GI50 (M14),GI50 (SNB-78),GI50 (MDA-MB-231),GI50 (M19-MEL),GI50 (EKVX),GI50 (MDA-N)
CN(Cc1ccccc1)/C(=N\C#N)N(Cc1ccccc1)Cc1ccccc1,21.1 µM (inactive),40.4 µM (inactive),27.7 µM (inactive),29 µM (inactive),21.9 µM (inactive),25.2 µM (inactive),20.3 µM (inactive),16.9 µM (inactive),19.6 µM (inactive),22.3 µM (inactive),29.9 µM (inactive),37.2 µM (inactive),21.9 µM (inactive),27.6 µM (inactive),20.3 µM (inactive),26.3 µM (inactive),20.6 µM (inactive),22.8 µM (inactive),34.6 µM (inactive),17.9 µM (inactive)
COC(=O)C(C(=O)OC)C1CCCC(=O)C1 (stereo not drawn),> 100 µM (inactive),> 100 µM (inactive),,> 100 µM (inactive),> 100 µM (inactive),> 100 µM (inactive),< 0.01 µM (active),> 100 µM (inactive),> 100 µM (inactive),,> 100 µM (inactive),> 100 µM (inactive),> 100 µM (inactive),> 100 µM (inactive),> 100 µM (inactive),> 100 µM (inactive),,> 100 µM (inactive),> 100 µM (inactive),
NC1=NC2=C(CCCC2)C(c2cccs2)S1 (stereo not drawn),> 100 µM (inactive),> 100 µM (inactive),,> 100 µM (inactive),> 100 µM (inactive),56.9 µM (inactive),> 100 µM (inactive),47.8 µM (inactive),> 100 µM (inactive),,> 100 µM (inactive),55 µM (inactive),> 100 µM (inactive),> 100 µM (inactive),> 100 µM (inactive),> 100 µM (inactive),,> 100 µM (inactive),> 100 µM (inactive),
CC(C)(C)C1CCC2c3c([nH]c4ncccc34)C3C(=O)N(c4ccccc4)C(=O)C3C2C1 (stereo not drawn),> 100 µM (inactive),> 100 µM (inactive),,> 100 µM (inactive),> 100 µM (inactive),> 100 µM (inactive),> 100 µM (inactive),> 100 µM (inactive),> 100 µM (inactive),,99.3 µM (inactive),49.7 µM (inactive),> 100 µM (inactive),> 100 µM (inactive),> 100 µM (inactive),40.4 µM (inactive),,> 100 µM (inactive),> 100 µM (inactive),
COC(=O)c1cc(-c2ccc(OC)c(OC)c2)oc1-c1ccc(OC)c(OC)c1,36.1 µM (inactive),45.3 µM (inactive),,38.9 µM (inactive),27.7 µM (inactive),80.9 µM (inactive),44.9 µM (inactive),13.4 µM (inactive),53.3 µM (inactive),,44.6 µM (inactive),> 100 µM (inactive),26.6 µM (inactive),48.5 µM (inactive),55.8 µM (inactive),31.7 µM (inactive),,41.3 µM (inactive),52.4 µM (inactive),
Cc1cccc(C)c1NC(=O)C(=O)C(C(=O)c1ccccc1-c1ccccc1)C1OC(=O)c2ccccc21 (stereo not drawn),23.2 µM (inactive),26.4 µM (inactive),,27.6 µM (inactive),13.5 µM (inactive),30.4 µM (inactive),16.2 µM (inactive),16.7 µM (inactive),28.8 µM (inactive),,29.6 µM (inactive),19.4 µM (inactive),14.3 µM (inactive),27.3 µM (inactive),14.7 µM (inactive),24.8 µM (inactive),,15.6 µM (inactive),26.3 µM (inactive),
Nc1c(-c2ccc(Cl)cc2)[n+]([O-])c2ccccc2[n+]1[O-],> 100 µM (inactive),> 100 µM (inactive),,> 100 µM (inactive),52.7 µM (inactive),49.3 µM (inactive),> 100 µM (inactive),28.1 µM (inactive),> 100 µM (inactive),,> 100 µM (inactive),54.5 µM (inactive),54.6 µM (inactive),94.2 µM (inactive),> 100 µM (inactive),> 100 µM (inactive),,> 100 µM (inactive),> 100 µM (inactive),
Cc1cc(NS(=O)(=O)c2ccc(NC(=O)c3cccc4c(Nc5ccc(S(=O)(=O)Nc6cc(C)on6)cc5)c5ccc(Cl)cc5nc34)cc2)no1,> 100 µM (inactive),76.7 µM (inactive),,> 100 µM (inactive),43.2 µM (inactive),40.8 µM (inactive),> 100 µM (inactive),24.3 µM (inactive),74.1 µM (inactive),,> 100 µM (inactive),41.9 µM (inactive),45.1 µM (inactive),65 µM (inactive),32.1 µM (inactive),91.6 µM (inactive),,41.9 µM (inactive),> 100 µM (inactive),
CC(C)c1cccc(=O)c(O)c1 [HINOKITIOL],15.7 µM (inactive),5.9 µM (inactive),,49.4 µM (inactive),6.85 µM (inactive),6.38 µM (inactive),12.1 µM (inactive),15.9 µM (inactive),4.27 µM (inactive),,4.45 µM (inactive),2.79 µM (inactive),8.09 µM (inactive),6.98 µM (inactive),8.49 µM (inactive),48.3 µM (inactive),,13.3 µM (inactive),17.3 µM (inactive),

# From ChEMBL document CHEMBL1201862, “PubChem BioAssay data set” (2004)
